Results published in US5633277A, “Sulfonamide aminomethylene derivatives as immunosuppressants” (Miles Inc., priority 1995, dated 1997).
One block for each compound: values may come before it.

How the values were obtained:
[1] = test system: NF-AT; details: Schreiber and Crabtree, 1992; cited from earlier work
[2] = test system: IL-2 production; details: cited from earlier work
[3] = test system: FK506 binding protein (FKBP); details: cited from earlier work
[4] = test system: dogs; details: Collier et al., 1988; cited from earlier work
[5] = test system: baboons; details: Collier et al., 1988; cited from earlier work
[6] = test system: transplant patients; details: cited from earlier work
[7] = target: FKBP (Homo sapiens, UniProt P62942); test: PPIase Inhibition Assay; type: biochemical
Protocol: 1) Inhibition of PPlase Activity
This assay follows in principle the procedure described in Kofron et al., 1991, Biochemistry 30:6127. The three main reagents used are PPIase, a substrate for PPIase, and a selected inhibitor compound of the present invention. The basic principle behind this assay is the conversion of the cis isomer of the substrate to the trans form, which conversion is catalyzed by PPIase. Essentially, inhibition of this PPIase activity is measured for the selected compounds. A peptide chymotrypsin substrate containing a proline in the P2 position is only cleaved by chymotrypsin when the Phe-Pro bond is in the trans isomeric configuration. In the presence of excess chymotrypsin, all of the trans peptide isomers are cleaved within approximately five seconds, leaving only cis forms.
The cis peptide will spontaneously convert to the trans isomer at a slow rate. The cis to trans conversion is catalyzed by isomerases at a much faster rate than this spontaneous conversion. Proteins with PPIase activity are examples of such isomerases. After isomerization, the peptide is cleaved by chymotrypsin releasing p-nitroaniline which can be monitored at 390 nm. The rate of release is then calculated using a first order rate plus offset equation utilizing the ENZFITTER program (Leatherbarrow, BIOSOFT, Cambridge, United Kingdom).
In a plastic cuvette are added 950 ul of ice cold assay buffer (25 mM HEPES, pH 7.8, 100 mM NaCl), 10 uL of FKBP (2.5 uM in 10 mM Tris-Cl pH 7.5,100 mM NACl, 1 mM dithiothreitol), 25 ul of chymotrypsin (50 mg/ml in 1 mM HCl) and 10 ul of the test compound at various concentrations in dimethyl sulphoxide. The reaction is initiated by addition of 5 ul of substrate (Succinyl-Ala-Phe-Pro-Phe-para-nitroanilide, 5 mg/ml in 235 mM LiCl in trifluoroethanol).
The absorbance at 390 nm versus time is monitored for 90 sec using a Beckman DU70 spectrophotometer. The absorbance versus time data files are transferred to an IBM XT computer and the rate constants determined using the commercial Enzfitter program. For each set of data, the uncatalyzed rate of conversion is measured and the uninhibited enzymatic rate determined. The data are expressed as % Inhibition and are calculated as follows: [formula] where kobs is the rate in the presence of a selected test compound, kuncat is the rate in the absence of enzyme, and kuninh is the rate in the presence of enzyme and absence of inhibitor. Data are plotted as percent inhibition versus concentration of inhibitor. The values of the concentration of inhibitor required for 50% inhibition of enzyme activity (IC50) were determined by nonlinear least squares regression analysis.

[8] = test system: human T-cells; test: Suppression of Human T-Cell Proliferation Assay (mitogen-induced, [3H]-thymidine incorporation); type: cell-based; details: Homo sapiens, T-cell; 72 hours incubation; mitogen stimulated; read-out: IC50 (inhibition of [3H]-thymidine incorporation of T-cells by 50%)
Excerpt: 2) Human T Lymphocyte Inhibition
Inhibition of mitogen-induced T-cell proliferation can be used to profile immunosuppressive activity of test compounds. In the description of the assay which follows, mitogen-induced T-cell proliferation was used to test the inhibitory potencies of select compounds of the present invention.
In an assay similar to that described by Bradley in Mishell et al. (Eds.), 1980, Selected Methods in Cellular Immunology, pp 156-161, W. H. Freeman & Co., San Fransisco, Calif., T-cells were stimulated by incubation with phytohemagglutinin (PPIA) which binds to cell surface molecules, including the T-cell receptor. This stimulation results in proliferation which can be measured by incorporation of [^3 H]-thymidine into cellular DNA.
The immunosuppressive properties of the compounds of the present invention can be determined by adding various concentrations of the compounds to these cultures and measuring the effect on T-cell proliferation.
Suppression of Human T-Cell Proliferation Assay
Fresh LeukoPaks were obtained from the New York Blood Center, New York, N.Y. The cells, including erythrocytes and leukocytes, were diluted with Hank's Balanced Salt Solution (HBSS) (GIBCO, Grand Island, N.Y.) and layered over Lymphoprep (Nycomed Pharma AS, Oslo, Norway) in sterile 50 ml conical centrifuge tubes. Lymphocytes were isolated at the Hank's/Nycomed interface after centrifugation at 2000×g, 4° C. for 15 min. The lymphocytes were washed with Minimal Essential Medium (GIBCO) containing 2% fetal bovine serum (FBS) (Sigma Chemical Co., St. Louis, Mo.), 1% HEPES buffer (GIBCO) and 1% Penicillin-Stretomycin solution (GIBCO).
T-cells were further purified essentially by sheep erythrocyte (SRBC) rosetting as described by Morimoto et al., 1983, J. Immunol. 130:157. The isolated lymphocytes were adjusted to 2×10^7 cells/ml and 5 ml aliquots of the cell suspension were incubated for 10 minutes at room temperature with 5 ml of a 5% SRBC (Cappel, Organon Technika Corp., West Chester, Pa.) suspension. The cells were gently pelleted by centrifugation at 300 rpm for 10 minutes, followed by a 1 hour incubation at room temperature to allow rosette formation. The cells were gently resuspended,layered over Lymphoprep and centrifuged for 30 minutes at 500×g. The pellet, containing rosetted T-cells and SRBC was treated with ice cold buffered ammonium chloride (GIBCO) to lyse the erythrocytes. T-cells were washed twice with HBSS.
Purified T-cells were resuspended at 2×10^6 cells/ml in complete culture medium composed of RPMI-1640 (Whittaker Bioproducts, Walkerville, Md.) with 10% FBS (Sigma), 2 mM L-glutamine (GIBCO), 1% Penicillin-Streptomycin (GIBCO) and 15 mM HEPES (GIBCO). In 96-well plates (Becton Dickinson, Lincoln Park, N.J.), 0.1 ml aliquots of T-cell suspension were mixed with 0.05 ml of 40 μg/ml PPIA-M (Sigma). The compounds of this invention were dissolved in dimethylsulfoxide at 10 mM and various dilutions in complete medium were added in duplicate wells (0.05 ml/well). The plates were incubated at 37° C. in a humidified atmosphere of 5% carbon dioxide and 95% air for 72 hours.
Proliferation was assessed by measurement of [3H]-thymidine incorporation. During the last 6 hours of incubation, the cells were pulse labelled with 1 μCi/well of [3H]-thymidine (New England Nuclear, Boston, Mass.). The cells were harvested onto glass fiber paper using a plate harvester and the radioactivity incorporated into cellular DNA corresponding to individual wells was measured by standard liquid scintillation counting methods. The mean counts per minute (CPM) of replicate wells was calculated and linear regression analysis of mean CPM versus compound concentration was used to determine the concentration of compound which would inhibit [^3 H]-thymidine incorporation of T-cells by 50% (IC50).

FKBP, sequence (P62942 whole entry): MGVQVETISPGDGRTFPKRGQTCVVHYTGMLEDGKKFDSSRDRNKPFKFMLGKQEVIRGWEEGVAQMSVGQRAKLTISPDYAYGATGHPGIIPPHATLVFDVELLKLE

Compound: C=CC[C@@H]1/C=C(\C)C[C@H](C)C[C@H](OC)[C@H]2O[C@@](O)(C(=O)C(=O)N3CCCC[C@H]3C(=O)O[C@H](/C(C)=C/[C@@H]3CC[C@@H](O)[C@H](OC)C3)[C@H](C)[C@@H](O)CC1=O)[C@H](C)C[C@@H]2OC [FK506]
NF-AT activity (in words) [1]: inhibited | IL-2 production (in words) [2]: inhibit IL-2 production | binding to FKBP (in words) [3]: bound | vasculitis [4]: severe vasculitis | vasculitis [5]: severe vasculitis | effectiveness in transplant patients who do not respond to CsA ([6]; Tucci et al., 1989): effective in some transplant patients who do not respond to CsA | absolute rate of clinical rejection vs current standard therapies ([6]; post-organ transplantation patients, Holechek, 1991): only slightly lower than with current standard therapies

IC50 [7]: > 5 µM
Compound: CC(C)C[C@@H](CN1CCC[C@H]1C(=O)NCCCCc1ccccc1)NS(=O)(=O)CS(C)(=O)=O [Example 9, 1-[2-(S)-(Methylsulfonylmethanesulfonylamino)-4-methylpentyl]-L-proline 4-Phenylbutylamide]
IC50 [8]: 4 µM
